Reference: patent publication US7186725B2, “Anti-inflammatory compositions and methods” (Genzyme Corporation, priority 2003, dated 2007)

Legend:
IL-1β = test: Cellular assay: Mediator Release, IL-1β; assay type: cell-based; conditions: IL-1β release
IL-10 = test: Cellular assay: Mediator Release, IL-10; assay type: cell-based; conditions: IL-10 release
IL-5 = test: Cellular assay: Mediator Release, IL-5; assay type: cell-based; conditions: IL-5 release
IL-6 = test: Cellular assay: Mediator Release, IL-6; assay type: cell-based; conditions: IL-6 release
Interferon-γ = test: Cellular assay: Mediator Release, Interferon-γ; assay type: cell-based
TNF-α = test: Cellular assay: Mediator Release, TNF-α; assay type: cell-based
NF-κB = test: Cellular assay: Transcription Response, NF-κB; assay type: cell-based
[1] = tested on: Distal colitis induced by DNBS; test: Inflammatory Bowel Disease: DNBS-induced distal colitis in rats; assay type: in vivo; conditions: rat
Procedure: CM Hogaboam et al., Eur. J. Pharmacol.; 309; 261 (1996) Groups of 3 derived-male, overnight-fasted rats weighing 150±10 g are used. Distal colitis is induced by intra-colonic instillation of 0.5 ml/rat of DNBS (2,4-dinitrobenzene sulfonic acid, 60 mg/ml in ethanol 30%) after which air (2 ml) is gently injected through the cannula to ensure that the solution remains in the colon. […] The animals are sacrificed 24 hours after the final dose of test compound administration and each colon is removed and weighed.

[2] = tested on: Septic Shock, Lipopolysaccharide; test: Septic Shock, Lipopolysaccharide plus galactosamine in mice; assay type: in vivo, C57/BL mice; conditions: for Total Deaths: N 6, 3-day period
Procedure: Groups of 4 or 6 C57/BL mice weighing 18–20g were used. […] The blank control group was only applied 10% cremophor/10% ethanol IP and without LPS challenge. Mortality is recorded every 12 hours after challenge over a 3-day period. Protection of mortality by 50 percent or more (≧50%) indicates significant activity.

[3] = tested on: Autoimmune Encephalomyelitis (EAE); test: Autoimmune Encephalomyelitis (EAE) model, PLP 139-151 immunized mice; assay type: in vivo, SJL/J mice; conditions: 24 mg/kg daily day 1 to 16, FIG. 2

`CCNC(=O)Nc1nc2cc(C)c(C)cc2[nH]1` [Compound 56, 1-(5,6-dimethyl-1H-benzoimidazol-2-yl)-3-ethyl urea] was tested, and the inhibition at 10000 µM (IL-1β; Conc. 10 mM) was 91%, the IC50 (IL-1β) was 2.06 µM and the inhibition at 10000 µM (IL-10; Conc. 10 mM) was 63%. For the same molecule, the IC50 (IL-10) was 5.74 µM, the inhibition at 10000 µM (IL-5; Conc. 10 mM) was 54% and the IC50 (IL-5) was 9.28 µM. It also gave an inhibition at 10000 µM (IL-6; Conc. 10 mM) of 82%, an IC50 (IL-6) of 3.89 µM and an IC50 (Interferon-γ) of 6.49 µM. The inhibition at 10000 µM (Interferon-γ; Conc. 10 mM) was 57%, the IC50 (TNF-α) was 1.94 µM and the inhibition at 10000 µM (TNF-α; Conc. 10 mM) was 89%. For the same molecule, the IC50 (NF-κB) was 9.65 µM, the inhibition at 10000 µM (NF-κB; Conc. 10 mM) was 52% and the “Ave. (colon to 100 g body weight ratio)” value ([1]; PO 5 mg/kg × 7) was 0.678. For the same molecule, the “Inhibition (of net increase of colon to 100 g body weight ratio, relative to vehicle with DNBS)” value ([1]; PO 5 mg/kg × 7) was 12%, the “Net Inc. (net increase of colon to 100 g body weight ratio)” value ([1]; PO 5 mg/kg × 7) was 0.381 and the “response in IBD model at the highest dose” value ([1]; PO 25 mg/kg) was “statistically significant response”. For the same molecule, the “Ave. (colon to 100 g body weight ratio)” value ([1]; PO 25 mg/kg × 7) was 0.585, the “Inhibition (of net increase of colon to 100 g body weight ratio, relative to vehicle with DNBS)” value ([1]; PO 25 mg/kg × 7) was 34% and the “Net Inc. (net increase of colon to 100 g body weight ratio)” value ([1]; PO 25 mg/kg × 7) was 0.288. The “activity in IBD model” value ([1]; PO 25 and 5 mg/kg) was “dose responsive activity”, the “Inhibition (protection of mortality)” value ([2]; IP 5 mg/kg) was 17% and the “Total Deaths” value ([2]; IP 5 mg/kg) was 5. For the same molecule, the “Inhibition (protection of mortality)” value ([2]; IP 25 mg/kg) was 50%, the “response in septic shock model at the highest dose” value ([2]; IP 25 mg/kg) was “statistically significant response” and the “Total Deaths” value ([2]; IP 25 mg/kg) was 3. The “activity in septic shock model” value ([2]; IP 25 and 5 mg/kg) was “dose responsive activity” and the “effect on disease onset (ADSS)” value [3] was “significant effect”.
